≈ marks a conversion by molar mass, not a printed value.

The conditions of this series: buffer; pH 7.4; 200.0 µM.
With `Fc1ccc(NC(=S)N2CCOCC2)c(F)c1`, the solubility (kinetic) is greater than 38.7 µg/mL. The molecule `Cc1nc2ccccn2c1C(=O)NN=C1CCN(C)CC1` gave a solubility (kinetic) greater than 42.8 µg/mL. Under `COc1ccc(S(=O)(=O)N2CCN(C(=O)c3cc(C)nc4ccccc34)CC2)cc1OC` stands greater than 68.3 µg/mL. Under `CC(=O)Nc1nc(C)c(Oc2ccc(Cl)cc2)c(=O)[nH]1` stands 43 µg/mL (≈ 146 µM); under `N/C(=N\c1nc2ccccc2o1)NC(=O)c1ccccc1Br`, less than 0.2 µg/mL. As for `CC(=O)c1sc(C(C)(C)C)cc1NC(=O)CCC(=O)O`, the figure is greater than 44.6 µg/mL; as for `O=C(COC(=O)CCC(=O)c1cccs1)NC1CC1`, greater than 42.2 µg/mL. As to `CCN(CC)CCOC(=O)C(c1ccccc1)C1CCCCC1.Cl` (stereo not drawn), the solubility (kinetic) was greater than 53.1 µg/mL. Under `Cc1ccc(O)c(N/C=C/C(=O)c2ccc(F)cc2)c1` stands 1.1 µg/mL (≈ 4.05 µM); under `Cc1ccc(/C=C/C(=O)NCc2cccs2)c(C)c1`, less than 0.6 µg/mL; under `O=C(c1ccc(Cn2cc([N+](=O)[O-])cn2)o1)N1CCCC1`, greater than 43.5 µg/mL. As for `CCc1cc(=O)[nH]c(SCC(=O)NCC2CCCO2)n1` (stereo not drawn), the figure is greater than 44.6 µg/mL; as for `Clc1ncn(CCOc2ccccc2)c1Cl`, 38.2 µg/mL (≈ 149 µM); as for `CC1CCCC(NC(=O)CCC(=O)c2ccc(F)cc2)C1C` (stereo not drawn), 33.8 µg/mL (≈ 111 µM).

Consider `N#C/C(=C\c1ccc([N+](=O)[O-])cc1)c1ccccn1`, for which the kinetic solubility was determined as 4.7 µg/mL (≈ 18.7 µM).

As for `COc1ccc(S(=O)(=O)N2CCCc3ccccc32)cc1[N+](=O)[O-]`, the kinetic solubility turned out to be 9.7 µg/mL (≈ 27.8 µM). `COc1ccccc1NS(=O)(=O)c1ccc2[nH]c(=S)oc2c1`: the kinetic solubility is greater than 50.5 µg/mL. Under `CC(=O)N1CC(C(=O)Nc2ccc3c(c2)OCO3)Oc2ccccc21` (stereo not drawn) stands greater than 51.1 µg/mL.

Regarding `Cc1ccc(NC(=O)OCc2cncs2)cc1`, the kinetic solubility was greater than 37.2 µg/mL.

`COc1ccc(C(=O)Nc2cc3c4c(c2)CC(=O)N4CCC3)cc1`: the kinetic solubility is greater than 48.4 µg/mL. On to `COc1ccc(CCNC(=O)Oc2ccccc2)cc1OC`, for which the solubility (kinetic) is 42.9 µg/mL (≈ 142 µM). Under `CCOC(=O)c1sc(NC(=O)CC)c(C#N)c1C` stands 1.4 µg/mL (≈ 5.26 µM). In turn, `O=[N+]([O-])c1ccc(CN2CCN(c3ccc(F)cc3)CC2)o1` gave a kinetic solubility of 15 µg/mL (≈ 49.1 µM). `CCOc1ncccc1C(=O)OCC(=O)NCc1ccc2c(c1)OCO2` showed a kinetic solubility greater than 53.8 µg/mL. Take `Cc1ccc(/C=C/C(=O)Nc2cc(S(N)(=O)=O)ccc2O)cc1`: the kinetic solubility was determined as 42.2 µg/mL (≈ 127 µM). As for `O=C(COc1ccc(Cl)cc1Br)NC(=O)NC1CCCC1`, the figure is 6.4 µg/mL (≈ 17 µM); as for `CC(=O)c1cn(CCOc2cc(C)ccc2C)c2ccccc12`, less than 0.7 µg/mL. Under `Cn1cccc1C(=O)NCCc1ccccc1` stands greater than 34.2 µg/mL; under `CCCN(CCC)S(=O)(=O)c1cccc(-c2csc(C)n2)c1`, 8 µg/mL (≈ 23.6 µM).

Consider `OC1CCCCC1N1CCC(c2ccccc2)CC1` (stereo not drawn), for which the kinetic solubility was greater than 38.9 µg/mL. In the case of `Fc1ccc2[nH]c3c(Cl)ncnc3c2c1`, the kinetic solubility was found to be 7.9 µg/mL (≈ 35.6 µM). As for `Cc1ccc2sc(NC(=O)C3CC3)nc2c1C`, the figure is 1.3 µg/mL (≈ 5.28 µM).

`CC(C)(C)NC(=O)COC(=O)CCC(=O)c1ccc(F)cc1`: the solubility (kinetic) is greater than 46.4 µg/mL. Take `CC(C)N(Cc1ccccc1)C(=O)c1cccs1`: the solubility (kinetic) is greater than 38.9 µg/mL. In turn, `COC(=O)C(Cc1ccccc1)NC(=O)CCc1c[nH]c2ccccc12` (stereo not drawn) had a kinetic solubility greater than 52.6 µg/mL.

`Cl.O=C(NC1CCCCC1)N1CCNCC1` displayed a kinetic solubility greater than 37.2 µg/mL. Under `COc1ccc(NC(=O)c2cc(S(=O)(=O)N3CCCC3)oc2C)cc1` stands 2.5 µg/mL (≈ 6.86 µM); under `O=C(/C=C/c1ccccn1)c1cc(Cl)cc(Cl)c1O`, 5.9 µg/mL (≈ 20.1 µM).

For the molecule `O=C(Nc1ccccn1)c1ccc2c(c1)OCO2`, the solubility (kinetic) is greater than 36.3 µg/mL. Under `COc1ccc(CCNC(=O)Nc2ccc(F)cc2F)cc1OC` stands 1.6 µg/mL (≈ 4.76 µM).

As for `Cc1cc(=O)[nH]c(SCC(=O)Nc2nc3ccccc3s2)n1`, the solubility (kinetic) is greater than 49.9 µg/mL. Under `Cc1ccc(NC(=O)CN2C(=O)NC3(CCCc4ccccc43)C2=O)c(Cl)c1` (stereo not drawn) stands 47 µg/mL (≈ 118 µM). `Cc1nc(SCC(=O)N2CCOCC2)c2c3c(sc2n1)CCC3`: the solubility (kinetic) was determined as 32.8 µg/mL (≈ 93.9 µM). This solubility kinetic and that of the molecule before are within 1.5-fold of each other. Under `Cc1ccccc1Nc1nc(N)nc(-c2oc3ccccc3c2C)n1` stands 1 µg/mL (≈ 3.02 µM); under `Oc1ccc(Nc2nc(-c3ccccc3F)nc3ccccc23)cc1`, 1.4 µg/mL (≈ 4.23 µM); under `Cc1ccc2c(C(=O)CN3CCC(C(N)=O)CC3)c(C)[nH]c2c1`, greater than 47 µg/mL.

For `COCC(=O)Nc1ccc2c(c1)OCC(=O)N2Cc1ccccc1F`, the solubility (kinetic) was found to be 46.4 µg/mL (≈ 135 µM). `O=C(Nc1c(C(=O)O)[nH]c2ccccc12)c1cccc(C(F)(F)F)c1` registered a kinetic solubility greater than 52.2 µg/mL.

Take `COc1cc(NC(=O)CCCN2C(=O)NC(C)(C)C2=O)cc(OC)c1`: the kinetic solubility turned out to be 49.6 µg/mL (≈ 142 µM).

Turning to `Cc1ccc(C)c(-c2csc(-c3cccnc3)n2)c1`, the solubility (kinetic) worked out at 9.9 µg/mL (≈ 37.2 µM). Under `CCOC(=O)c1cc2c(ccn2C)n1Cc1ccc(C#N)cc1` stands 2.3 µg/mL (≈ 7.48 µM); under `CCc1nn(CC(=O)N2CCC(C)CC2)c(=O)c2cccn12`, greater than 45.4 µg/mL; under `CCCC/C(=N/O)c1c(C)[nH]c2ccccc12`, 30.7 µg/mL (≈ 133 µM).

As a reminder, the kinetic solubility is solubility judged after dilution from a stock solution rather than from solid.

The values are drawn from PubChem BioAssay AID1996.
